Read-outs that look alike come from different tables or passages of the source.

Results on 2 compounds are retold here after patent US20070098685A1, “Methods and kits to treat chronic inflammatory immune diseases by administering a proteasome inhibitor and an interleukin 2 receptor agonist” (priority 2005, published 2007).

For data set [1] the following is noted: humans, cited from earlier work.
The subject of data set [2] is blood cell proteasome. As to conditions: rats, cited from earlier work.
The conditions of data set [3]: cited from earlier work.
Data set [4] in a line: Animal models of immune disease. It counts as in vivo. As to conditions: 0.03 mg/kg dose. How it is done:
Without being limited by any particular theory or mechanism, a preferred embodiment of the method is administering systemically a dose of a proteasome inhibitor that gives partial inhibition (20-30%) of red blood cell proteasome activity. In human subjects, a Velcade™ PS-341dose of 0.4 mg/m^2 gave 30% inhibition of blood cell proteasome activity after a single intravenous bolus injection; (Orlowski et al. 2002 J. Clin. Oncol. 20 pp. 4420-27).

The conditions of data set [5]: animal models and human subjects; cited from earlier work.
Data set [6] has as its system CD4Th1 T cell mediated inflammation. The experiment in a line: Delayed type hypersensitivity (DTH) reaction in mice, ear swelling after topical DNFB. It counts as in vivo. As to conditions: PS 341 0.003 to 0.01 or 0.03 mg/kg co-administered with IL2 (4 ng), FIG. 2. An excerpt:
FIG. 1 is a drawing of a protocol for induction and assay of delayed-type hypersensitivity (DTH) in mice, as a function of time from left to right. Groups of experimental animals are sensitized on two successive days (at time points indicated as days—5 and —4 in the Figure) by application of 2,4-dinitro-1-fluorobenzene (DNFB; obtained from Sigma, St. Louis, Mo) to footpads, the DNFB dissolved in acetone or acetone/olive oil. After an additional day (at time indicated as day—3) proteasome inhibitor PS 341 and interleukin 2 (IL 2) are administered by intraperitoneal injection (IP). Animals are challenged, elicited for a T cell response, with DNFB topically applied to a target tissue such as ears at a point in time […] after administration, the point in time indicated as day 0. Swelling of the target, i.e., ear marker organ or tissue is measured at subsequent time points, exemplified as day 1 in the Figure.
Groups of experimental and control mice are administered an IL2 dose which is a constant amount (4 ng) in each group with the exception of a group of control animals not administered IL2, and are administered an amount of PS 341 that is varied (from 0.003 to 0.01 or 0.03 mg/kg total weight) in each of the various experimental groups. A control group of mice is administered IL 2 alone (no PS 341). […]
Inflammation was measured by ear swelling after applying topical DNFB. […]

The conditions of data set [7]: human subjects, 0.4 mg/m^2; cited from earlier work.
For data set [8], the system named is blood cell proteasome. As to conditions: cited from earlier work.
Data set [9] has as its target T1, high affinity IL2 receptor (Homo sapiens, UniProt P01589+P14784+P31785).
T1 sequence (P01589 22-272): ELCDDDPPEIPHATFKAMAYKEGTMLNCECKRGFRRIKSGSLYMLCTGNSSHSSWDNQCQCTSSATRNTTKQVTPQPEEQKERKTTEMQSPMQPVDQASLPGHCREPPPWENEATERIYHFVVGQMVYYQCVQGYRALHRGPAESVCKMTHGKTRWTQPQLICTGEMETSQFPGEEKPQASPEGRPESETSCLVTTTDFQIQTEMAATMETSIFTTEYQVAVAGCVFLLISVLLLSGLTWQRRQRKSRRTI
T1 sequence (P14784 27-551): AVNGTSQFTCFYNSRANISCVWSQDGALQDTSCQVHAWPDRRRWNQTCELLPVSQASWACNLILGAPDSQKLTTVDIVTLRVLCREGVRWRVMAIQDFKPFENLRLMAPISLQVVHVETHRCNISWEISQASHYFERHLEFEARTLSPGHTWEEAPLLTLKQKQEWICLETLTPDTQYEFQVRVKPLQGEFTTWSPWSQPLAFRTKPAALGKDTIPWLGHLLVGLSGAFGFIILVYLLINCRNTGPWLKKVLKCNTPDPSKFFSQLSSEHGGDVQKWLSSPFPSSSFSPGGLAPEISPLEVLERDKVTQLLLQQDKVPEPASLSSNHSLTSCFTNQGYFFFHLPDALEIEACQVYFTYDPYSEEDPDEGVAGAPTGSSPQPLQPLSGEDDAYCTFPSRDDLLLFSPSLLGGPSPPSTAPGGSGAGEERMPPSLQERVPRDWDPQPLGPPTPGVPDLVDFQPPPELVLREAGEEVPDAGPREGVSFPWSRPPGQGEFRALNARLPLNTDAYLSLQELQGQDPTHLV
T1 sequence (P31785 23-369): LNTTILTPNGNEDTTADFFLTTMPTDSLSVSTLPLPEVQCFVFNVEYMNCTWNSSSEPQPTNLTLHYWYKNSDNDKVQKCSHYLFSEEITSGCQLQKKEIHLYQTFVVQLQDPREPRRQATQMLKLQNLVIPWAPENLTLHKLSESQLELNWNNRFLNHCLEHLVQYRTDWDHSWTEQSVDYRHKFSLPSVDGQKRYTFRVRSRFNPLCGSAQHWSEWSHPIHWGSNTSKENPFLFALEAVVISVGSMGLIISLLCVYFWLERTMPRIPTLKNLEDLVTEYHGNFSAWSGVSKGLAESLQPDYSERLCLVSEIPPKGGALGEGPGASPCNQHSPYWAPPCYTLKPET
As to conditions: high affinity IL2 receptor on activated T cells; cited from earlier work.

For data set [10] the following is noted: cited from earlier work. The source holds these as a separate data set.
For data set [11] the following is noted: in vivo; cited from earlier work.

`CC(C)C[C@H](NC(=O)[C@H](Cc1ccccc1)NC(=O)c1cnccn1)B(O)O` [PS-341, Pyz Phe boro leu; Pyz2,5 pyraninecarboxylic acid]: the results for the half-life entry in data set [1] and in data set [1] (listed as Velcade) were “approximately 24 hours” and 24 h, respectively. For the same compound, in the data set on blood cell proteasome [2] (0.03 mg/kg intravenous bolus dose), the partial proteasome inhibition is 20-30%. Further, the “maximal blood cell proteasome inhibition” value with blood cell proteasome [2] (0.3 mg/kg intravenous bolus, one hour after dosing) is listed as 80%; in the data set with blood cell proteasome [8] (humans, 1.38 mg/m^2 intravenous bolus, one hour after dosing), 80%. In addition, the adverse events result in [3] (human studies, doses that are 1 mg/m^2) is “adverse events are observed”; in data set [3] (human subjects, doses less than or equal to 0.4 mg/m^2, multiple administration) it was “No adverse events were observed”. Also, the serious adverse events result in data set [3] (human subjects, dose that causes partial inhibition of blood proteasome activity) was “does not cause serious adverse events”. Moreover, the therapeutic effect result in data set [4] was “not effective therapeutically”. Moreover, the tolerability result in data set [4] was “well tolerated”. Moreover, the toxicity entry in data set [5] was “free from substantial toxicity”. In addition, in [6], the “inhibition of DTH (ear swelling)” value is recorded as “increasing inhibition of DTH”. The therapeutic efficacy entry in data set [7] is given as “no significant therapeutic efficacy”. Further, the “inhibition of blood cell proteasome activity” value in the data set on blood cell proteasome [8] (human subjects, 0.4 mg/m^2, single intravenous bolus injection) is 30%.

As to “des ala-1 serine 125 human interleukin 2 [IL2]”, in data set [9], the equilibrium dissociation constant (Kd) is 0.01 nM. Moreover, the tolerability entry in data set [10] (intravenous administration for extended periods) was “well tolerated”; in data set [10] (low doses (<20 million Units), repeated daily dosing for many weeks) it was “well tolerated”. Moreover, the half-life in data set [11] was 1.5 h.

For orientation: half-life means the time needed for the level to fall by half in the phase considered. As usually defined, the Kd is the constant that tells how readily two partners part at equilibrium.
